From ChEMBL document CHEMBL4184313, “Enantiomeric neolignans from Picrasma quassioides exhibit distinctive cytotoxicity on hepatic carcinoma cells through ROS generation and apoptosis induction” (Bioorg Med Chem Lett, 2018) come the findings set out here.

In assay [1] the test system is HepG2. Put plainly: Cytotoxicity against human HepG2 cells assessed as decrease in cell viability after 48 hrs by MTT assay. Type of assay: functional, cell-based. Conditions: HepG2, 48 h. Background: Tetrazolium dyes change colour on reduction, which living cells bring about.
The test system of assay [2] is Hep 3B2. Put plainly: Cytotoxicity against human Hep3B cells assessed as decrease in cell viability after 48 hrs by MTT assay. It is filed as functional, cell-based.
The subject of assay [3] is HepG2. Put plainly: Cell cycle arrest in human HepG2 cells assessed as <2N DNA content at 50 uM after 48 hrs by PI staining based flow cytometry (reference value: 4.18%). Type of assay: functional. (In general: A flow cytometer gives signals particle by particle.)
Assay [4] relates to HepG2. As to the kind of experiment: Induction of apoptosis in human HepG2 cells assessed as nuclear condensation at 50 uM after 48 hrs by […] staining based fluorescence microscopy. It is filed as functional, cell-based.
Assay [5] relates to HepG2. Put plainly: Induction of apoptosis in human HepG2 cells assessed as shrinkage of cells at 50 uM after 48 hrs by phase contrast microscopy. Type of assay: functional, cell-based.
Assay [6] has as its system HepG2. As to the kind of experiment: Induction of apoptosis in human HepG2 cells assessed as apoptotic bodies at 50 uM after 48 hrs by phase contrast microscopy. It is filed as functional, cell-based.
Assay [7] deals with HepG2. Put plainly: Induction of apoptosis in human HepG2 cells assessed as rounding of cells at 50 uM after 48 hrs by phase contrast microscopy. It is filed as functional, cell-based.
Assay [8] deals with HepG2. As to the kind of experiment: Induction of apoptosis in human HepG2 cells assessed as early apoptotic cells at 50 uM after 48 hrs by Annexin V-FITC/PI staining based flow cytometry (reference value: 1.61%). It is filed as functional.
For assay [9], the system named is HepG2. Put plainly: Cell cycle arrest in human HepG2 cells assessed as 2N DNA content at 50 uM after 48 hrs by PI staining based flow cytometry (reference value: 70.6%). It is filed as functional.
Assay [10] relates to HepG2. As to the kind of experiment: Induction of apoptosis in human HepG2 cells assessed as late apoptotic cells at 50 uM after 48 hrs by Annexin V-FITC/PI staining based flow cytometry (reference value: 2.03%). It is filed as functional.
In assay [11] the test system is HepG2. Put plainly: Cell cycle arrest in human HepG2 cells assessed as accumulation at S phase at 50 uM after 48 hrs by PI staining based flow cytometry (reference value: 7%). It is filed as functional.
The test system of assay [12] is HepG2. Put plainly: Cell cycle arrest in human HepG2 cells assessed as 4N DNA content at 50 uM after 48 hrs by PI staining based flow cytometry (reference value: 15.2%). Type of assay: functional.
Assay [13] has as its system HepG2. Put plainly: Induction of apoptosis in human HepG2 cells assessed as necrotic cells at 50 uM after 48 hrs by Annexin V-FITC/PI staining based flow cytometry (reference value: 0.62%). It is filed as functional.
The test system of assay [14] is HepG2. As to the kind of experiment: Induction of apoptosis in human HepG2 cells assessed as viable cells at 50 uM after 48 hrs by Annexin V-FITC/PI staining based flow cytometry (reference value: 95.7%). It is filed as functional. Conditions: HepG2, 48 h, read-out: Activity.
In assay [15] the test system is HepG2. As to the kind of experiment: Induction of intracellular ROS accumulation in human HepG2 cells at 50 uM after 48 hrs by DCFH probe based flow cytometry. Type of assay: functional, cell-based.
The test system of assay [16] is HepG2. Put plainly: Cell cycle arrest in human HepG2 cells assessed as >4N DNA content at 50 uM after 48 hrs by PI staining based flow cytometry (reference value: 2.04%). It is filed as functional.

Active and inactive are the calls of the source. The calls are words filed in the database; no cut-off is given here.

In the case of `COc1cc(C2Oc3c(OC)cc(/C=C/C=O)cc3C2CO)ccc1O` (racemic), the IC50 in assay [1] turned out to be 36.5 µM; in assay [2] it was 29.3 µM.
Consider `COc1cc(C2Oc3c(OC)cc(/C=C/C=O)cc3C2CO)cc(OC)c1O` (racemic), for which the IC50 in [1] worked out at 80.5 µM; in assay [2], 76.8 µM.
With `COc1cc([C@H]2Oc3c(OC)cc(/C=C/C=O)cc3[C@@H]2CO)cc(OC)c1O`, the values for the IC50 in assay [1] and in assay [2] were 88.7 µM and 72.8 µM, respectively.
As for `COc1cc([C@@H]2Oc3c(OC)cc(/C=C/C=O)cc3[C@H]2CO)cc(OC)c1O`, the IC50 in [1] came out at 104 µM; in assay [2] it was 60.7 µM.
The corresponding values for `COc1cc([C@@H]2Oc3c(OC)cc(/C=C/C=O)cc3[C@H]2CO)ccc1O` are 38.7 µM and 31.5 µM.
On to `COc1cc([C@H]2Oc3c(OC)cc(/C=C/CO)cc3[C@@H]2CO)ccc1O`, for which the Activity in [3] worked out at 3.86%; in assay [8], 8.39%; in assay [9], 70.2%; in [10], 3.87%; in [11], 6.2%; in [12], 19.1%. Besides, the Activity in assay [13] was 1.71%; in [16], 0.6%. For the same compound, the result in assay [4], in assay [5], in [6], in [7] and in [15] was Active. Moreover, the IC50 is 35.6 µM in assay [1] and 52.3 µM in assay [2]. Besides, the viability at 50 µM in assay [14] was 86%.
Regarding `COc1cc([C@H]2Oc3c(OC)cc(/C=C/C=O)cc3[C@@H]2CO)ccc1O`, the IC50 came to 38.1 µM in [1] and 22.4 µM in [2].
Turning to `COc1cc([C@@H]2Oc3c(OC)cc(/C=C/CO)cc3[C@H]2CO)ccc1O` [DEHYDROCONIFERYL ALCOHOL], the Activity in assay [3] was found to be 3.76%; in [8] it was 2.5%; in assay [9] it was 70.1%; in [10] it was 2.37%; in assay [11], 8.2%; in assay [12], 16.8%. Further, the Activity in [13] is reported as 0.74%; in [16], 1.14%. Also, the outcome in assay [4], in assay [5], in assay [6] and in [7] was Active. Moreover, the IC50 in assay [1] was 104 µM; in assay [2], 54.6 µM. The viability at 50 µM in assay [14] was determined as 94.4%. The result in assay [15] was inactive.
For the compound `COc1cc(C2Oc3c(OC)cc(/C=C/CO)cc3C2CO)ccc1O` (racemic), the values for the IC50 in [1] and in [2] were 78.6 µM and 65.5 µM, respectively.

One may read the IC50 as the point on the concentration scale where inhibition reaches its midpoint.
